{"source": "patent US8445712B2", "about": "“Phospholipid derivative and pH-responsive liposomes” (NOF Corporation, priority 2009, dated 2013)", "assay": "Measurement test of pH-sensitiveness of liposome (release of enclosed pyranine/DPX at a given pH)", "type": "physicochemical", "conditions": "Example 15 (Table 2) compared with Example 19 (Table 3); 11 mol % derivative in EYPC liposome", "description": "Using the liposomes prepared in Examples 5-13 and Comparative Example 1, pH-sensitiveness measurement tests were performed.\nTo the liposome solution obtained in Example 5 was added phosphate buffered saline (hereinafter to be indicated as “PBS”) to adjust the lipid concentration of the liposome to 1.6 mmol/l. The PBS (2469 μl) adjusted to a given pH with 1N hydrochloric acid was placed in a quartz cell, a liposome dispersion (31 μl) was added thereto at 37° C. to adjust the lipid concentration to 20 μmol/l. After incubation at 37° C. for 15 min, fluorescence intensity (F15min) was measured. In addition, 10% aqueous Triton X-100 (manufactured by Sigma-Aldrich Japan Co. Ltd.) solution (25 μl) was added thereto, and the mixture was stirred, and the fluorescence intensity (Fmax) was measured.\nThe release (%) was calculated by the following formula.\n[formula] F15min: fluorescence intensity at 15 min after liposome addition F0: fluorescence intensity at t=0 by measurement with PBS at pH 7.4 Fmax: fluorescence intensity after addition of Triton"}
{"substance": "Octaglycerolglutaryl Distearylphosphatidylethanolamine 1,2-Cyclohexanedicarboxylic Acid Derivative [DSPE-CHexPG8G]", "values": [{"measurement": "pH sensitive property (comparison)", "value": "stronger pH sensitive property"}]}
